# Assays:
# Format in all cases: biochemical
# [1] = biological target: T1, alkaline phosphatase (calf intestine; Biozyme) (Bos taurus, UniProt P19111); experiment: Total dephosphorylation, chemiluminescence decay (Example XIII); details: 30° C., carbonate/bicarbonate buffer
# T1 construct: purchased Biozyme; host or cells: calf intestine
# Experimental: A comparison of the total luminescence emission from AMPPD and from the corresponding 1,2-dioxetanes whose adamant-2'-ylidene groups are monosubstituted with hydroxy (A and B isomers), chloro and bromo groups was made by carrying out total dephosphorylation experiments on each of these compounds.
# An aqueous solution of the 1,2-dioxetane (4.0 mm) in 0.05M sodium carbonate/sodium bicarbonate containing 1 mM magnesium chloride was prepared and then equilibrated at 30° C. Ten μl of a 7.64×10M aqueous solution of alkaline phosphatase (calf intestine; Biozyme) was then added, and the chemiluminescence from the resulting solution was recorded using a Turner Model 20E luminometer (Turner Instruments; Sunnyvale, Calif.).
# The rates of chemiluminescence decay for each of the five compounds in question, expressed in relative light units (RLU's) per minute, are given in the following table.
# alkaline phosphatase [2] = biological target: T2, alkaline phosphatase (Bos taurus, UniProt P19111); experiment: Alkaline phosphatase detection limits, Wilj microtiter plate luminometer (Example XXVI); details: 23 MINUTE INCUBATION
# T2 sequence (P19111 20-506 limits assumed): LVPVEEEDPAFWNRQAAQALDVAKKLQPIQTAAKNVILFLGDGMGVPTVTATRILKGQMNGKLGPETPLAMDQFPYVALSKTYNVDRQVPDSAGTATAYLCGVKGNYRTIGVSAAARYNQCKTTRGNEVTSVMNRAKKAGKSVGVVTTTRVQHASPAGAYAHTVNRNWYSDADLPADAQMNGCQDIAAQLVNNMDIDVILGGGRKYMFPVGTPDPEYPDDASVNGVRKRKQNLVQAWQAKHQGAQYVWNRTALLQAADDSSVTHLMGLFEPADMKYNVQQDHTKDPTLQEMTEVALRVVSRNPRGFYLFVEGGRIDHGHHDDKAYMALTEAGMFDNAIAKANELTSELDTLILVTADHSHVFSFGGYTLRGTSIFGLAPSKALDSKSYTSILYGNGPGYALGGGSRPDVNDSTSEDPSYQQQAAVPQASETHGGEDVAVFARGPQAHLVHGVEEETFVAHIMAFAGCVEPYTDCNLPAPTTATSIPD
# alkaline phosphatase [3] = biological target: T2, alkaline phosphatase; experiment: Chemiluminescent signal and signal:background with enhancer polymers (Example XVII)
# Experimental: Four sets of three tubes each, each tube in each set containing 450 μl of a 0.4 mM aqueous solution of one of the four 1,2-dioxetanes being compared in 0.1M diethanolamine containing 1 mM magnesium chloride, 0.02% sodium azide and 0.1% of the enhancer polymer, pH 10.0 (substrate buffer) were prepared and the background signal from each tube measured using a Berthold LB 952T luminometer (Berthold Instruments; Wildbad, Federal Republic of Germany).
# Next, 50 μl of an aqueous solution, 2.83×10^-12 M of alkaline phosphatase in 0.1M diethanolamine containing 1 mM magnesium chloride, 0.02% sodium azide, pH 10.0, (final enzyme concentration 2.83×10^-13 M) was added to each tube and the chemiluminescent signals were measured in the luminometer at 5 and 20 minutes. The intensity of the chemiluminescent signals and the signal: background ratios obtained for each of the four 1,2-dioxetanes in the presence of the enhancer polymers are shown in Table III below.
# The enhancer polymers used, and the symbols for such polymers used in Table III, were the following: […]
# T1 sequence (P19111 20-506 limits assumed): as above
compound,measurement,setting,value
"COC1(c2cccc(OP(=O)(O)O)c2)OOC12C1CC3CC(C1)CC2C3 (stereo not drawn) [AMPPD, 3-(4-methoxyspiro[1,2-dioxetane-3,2'-triyclo[3.3.1.1^3,7]decan]-4-yl)phenyl phosphate, reference compound]",Total Decay Time,[1],60 min
same,Decay Rate I,[1]; RLU's per minute,0.1 RLU's per minute
same,Decay Rate II,[1]; RLU's per minute,0.3 RLU's per minute
same,Decay Rate III,[1]; RLU's per minute,0.8 RLU's per minute
same,Alkaline phosphatase detection limit (at 2× background),alkaline phosphatase [2]; SAPPHIRE II,0.0013 pM
same,Alkaline phosphatase detection limit (at 2× background),alkaline phosphatase [2]; SAPPHIRE,0.0019 pM
same,S/N,"alkaline phosphatase [3]; polymer BAEDM, 5 min",107.6
same,SIGNAL,"alkaline phosphatase [3]; polymer BAEDM, 5 min",9275.3
same,S/N,"alkaline phosphatase [3]; polymer BAEDM, 20 min",306.5
same,SIGNAL,"alkaline phosphatase [3]; polymer BAEDM, 20 min",26529.1
same,S/N,"alkaline phosphatase [3]; polymer BAEDM, time 0",1.0
same,SIGNAL,"alkaline phosphatase [3]; polymer BAEDM, time 0 (background, before enzyme)",217.3
same,S/N,"alkaline phosphatase [3]; polymer BZ, 5 min",18.3
same,SIGNAL,"alkaline phosphatase [3]; polymer BZ, 5 min",2738.0
same,S/N,"alkaline phosphatase [3]; polymer BZ, 20 min",30.9
same,SIGNAL,"alkaline phosphatase [3]; polymer BZ, 20 min",4611.5
same,S/N,"alkaline phosphatase [3]; polymer BZ, time 0",1.0
same,SIGNAL,"alkaline phosphatase [3]; polymer BZ, time 0 (background, before enzyme)",149.4
same,S/N,"alkaline phosphatase [3]; polymer DAA TMQ, 5 min",46.4
same,SIGNAL,"alkaline phosphatase [3]; polymer DAA TMQ, 5 min",8354.4
same,S/N,"alkaline phosphatase [3]; polymer DAA TMQ, 20 min",83.1
same,SIGNAL,"alkaline phosphatase [3]; polymer DAA TMQ, 20 min",14957.3
same,S/N,"alkaline phosphatase [3]; polymer DAA TMQ, time 0",1.0
same,SIGNAL,"alkaline phosphatase [3]; polymer DAA TMQ, time 0 (background, before enzyme)",180.0
same,S/N,"alkaline phosphatase [3]; polymer DME(OH)B, 5 min",21.4
same,SIGNAL,"alkaline phosphatase [3]; polymer DME(OH)B, 5 min",3462.3
same,S/N,"alkaline phosphatase [3]; polymer DME(OH)B, 20 min",52.9
same,SIGNAL,"alkaline phosphatase [3]; polymer DME(OH)B, 20 min",8540.9
same,S/N,"alkaline phosphatase [3]; polymer DME(OH)B, time 0",1.0
same,SIGNAL,"alkaline phosphatase [3]; polymer DME(OH)B, time 0 (background, before enzyme)",161.6
same,S/N,"alkaline phosphatase [3]; polymer DMEB, 5 min",52.6
same,SIGNAL,"alkaline phosphatase [3]; polymer DMEB, 5 min",9401.5
same,S/N,"alkaline phosphatase [3]; polymer DMEB, 20 min",114.4
same,SIGNAL,"alkaline phosphatase [3]; polymer DMEB, 20 min",20434.9
same,S/N,"alkaline phosphatase [3]; polymer DMEB, time 0",1.0
same,SIGNAL,"alkaline phosphatase [3]; polymer DMEB, time 0 (background, before enzyme)",178.6
same,S/N,"alkaline phosphatase [3]; polymer DMQ TEQ, 5 min",133.9
same,SIGNAL,"alkaline phosphatase [3]; polymer DMQ TEQ, 5 min",32820.5
same,S/N,"alkaline phosphatase [3]; polymer DMQ TEQ, 20 min",322.1
same,SIGNAL,"alkaline phosphatase [3]; polymer DMQ TEQ, 20 min",78977.4
same,S/N,"alkaline phosphatase [3]; polymer DMQ TEQ, time 0",1.0
same,SIGNAL,"alkaline phosphatase [3]; polymer DMQ TEQ, time 0 (background, before enzyme)",245.2
same,SIGNAL,"alkaline phosphatase [3]; polymer EMERALD (sapphire and fluorescein), time 0 (background, before enzyme)",2902.1
same,S/N,"alkaline phosphatase [3]; polymer EMERALD, 5 min",109.4
same,SIGNAL,"alkaline phosphatase [3]; polymer EMERALD, 5 min",317571.6
same,S/N,"alkaline phosphatase [3]; polymer EMERALD, 20 min",282.1
same,SIGNAL,"alkaline phosphatase [3]; polymer EMERALD, 20 min",818775.8
same,S/N,"alkaline phosphatase [3]; polymer EMERALD, time 0",1.0
same,S/N,"alkaline phosphatase [3]; polymer MPB, 5 min",94.3
same,SIGNAL,"alkaline phosphatase [3]; polymer MPB, 5 min",19971.8
same,S/N,"alkaline phosphatase [3]; polymer MPB, 20 min",196.9
same,SIGNAL,"alkaline phosphatase [3]; polymer MPB, 20 min",41701.8
same,S/N,"alkaline phosphatase [3]; polymer MPB, time 0",1.0
same,SIGNAL,"alkaline phosphatase [3]; polymer MPB, time 0 (background, before enzyme)",211.8
same,S/N,"alkaline phosphatase [3]; polymer NONE, 5 min",21.5
same,SIGNAL,"alkaline phosphatase [3]; polymer NONE, 5 min, enzyme 2.83×10^-13 M",3706.0
same,S/N,"alkaline phosphatase [3]; polymer NONE, 20 min",34.4
same,SIGNAL,"alkaline phosphatase [3]; polymer NONE, 20 min, enzyme 2.83×10^-13 M",5944.8
same,S/N,"alkaline phosphatase [3]; polymer NONE, time 0",1.0
same,SIGNAL,"alkaline phosphatase [3]; polymer NONE, time 0 (background, before enzyme)",172.6
same,S/N,"alkaline phosphatase [3]; polymer S/TMQ(1:2), 5 min",20.2
same,SIGNAL,"alkaline phosphatase [3]; polymer S/TMQ(1:2), 5 min",3437.0
same,S/N,"alkaline phosphatase [3]; polymer S/TMQ(1:2), 20 min",58.9
same,SIGNAL,"alkaline phosphatase [3]; polymer S/TMQ(1:2), 20 min",9994.7
same,S/N,"alkaline phosphatase [3]; polymer S/TMQ(1:2), time 0",1.0
same,SIGNAL,"alkaline phosphatase [3]; polymer S/TMQ(1:2), time 0 (background, before enzyme)",169.8
same,S/N,"alkaline phosphatase [3]; polymer S/TMQ(1:4), 5 min",35.7
same,SIGNAL,"alkaline phosphatase [3]; polymer S/TMQ(1:4), 5 min",5931.5
same,S/N,"alkaline phosphatase [3]; polymer S/TMQ(1:4), 20 min",95.4
same,SIGNAL,"alkaline phosphatase [3]; polymer S/TMQ(1:4), 20 min",15866.3
same,S/N,"alkaline phosphatase [3]; polymer S/TMQ(1:4), time 0",1.0
same,SIGNAL,"alkaline phosphatase [3]; polymer S/TMQ(1:4), time 0 (background, before enzyme)",116.3
same,SIGNAL,"alkaline phosphatase [3]; polymer SAPPHIRE (BDMQ), time 0 (background, before enzyme)",241.4
same,S/N,"alkaline phosphatase [3]; polymer SAPPHIRE, 5 min",159.3
same,SIGNAL,"alkaline phosphatase [3]; polymer SAPPHIRE, 5 min",38457.8
same,S/N,"alkaline phosphatase [3]; polymer SAPPHIRE, 20 min",353.6
same,SIGNAL,"alkaline phosphatase [3]; polymer SAPPHIRE, 20 min",85359.8
same,S/N,"alkaline phosphatase [3]; polymer SAPPHIRE, time 0",1.0
same,SIGNAL,"alkaline phosphatase [3]; polymer TBQ-FLUOR (TBQ and fluorescein), time 0 (background, before enzyme)",4961.2
same,S/N,"alkaline phosphatase [3]; polymer TBQ-FLUOR, 5 min",113.9
same,SIGNAL,"alkaline phosphatase [3]; polymer TBQ-FLUOR, 5 min",57271.6
same,S/N,"alkaline phosphatase [3]; polymer TBQ-FLUOR, 20 min",291.4
same,SIGNAL,"alkaline phosphatase [3]; polymer TBQ-FLUOR, 20 min",1445675.6
same,S/N,"alkaline phosphatase [3]; polymer TBQ-FLUOR, time 0",1.0
same,S/N,"alkaline phosphatase [3]; polymer TBQ, 5 min",191.2
same,SIGNAL,"alkaline phosphatase [3]; polymer TBQ, 5 min",94429.4
same,S/N,"alkaline phosphatase [3]; polymer TBQ, 20 min",433.9
same,SIGNAL,"alkaline phosphatase [3]; polymer TBQ, 20 min",214319.4
same,S/N,"alkaline phosphatase [3]; polymer TBQ, time 0",1.0
same,SIGNAL,"alkaline phosphatase [3]; polymer TBQ, time 0 (background, before enzyme)",493.9
same,S/N,"alkaline phosphatase [3]; polymer TEQ, 5 min",115.3
same,SIGNAL,"alkaline phosphatase [3]; polymer TEQ, 5 min",25095.8
same,S/N,"alkaline phosphatase [3]; polymer TEQ, 20 min",229.7
same,SIGNAL,"alkaline phosphatase [3]; polymer TEQ, 20 min",50020.0
same,S/N,"alkaline phosphatase [3]; polymer TEQ, time 0",1.0
same,SIGNAL,"alkaline phosphatase [3]; polymer TEQ, time 0 (background, before enzyme)",217.8
same,S/N,"alkaline phosphatase [3]; polymer TMQ, 5 min",65.8
same,SIGNAL,"alkaline phosphatase [3]; polymer TMQ, 5 min",10525.8
same,S/N,"alkaline phosphatase [3]; polymer TMQ, 20 min",141.1
same,SIGNAL,"alkaline phosphatase [3]; polymer TMQ, 20 min",22558.3
same,S/N,"alkaline phosphatase [3]; polymer TMQ, time 0",1.0
same,SIGNAL,"alkaline phosphatase [3]; polymer TMQ, time 0 (background, before enzyme)",159.9
